One experiment deals with 5-HT1BR (Mus musculus, UniProt P28334).
For another experiment, the system named is Flk1^GFP/+ mice. In words: Vessel number in the heart of Flk1GFP/+ mice after 6 weeks of fluoxetine. The following applies: fluoxetine 18 mg/Kg. The format is in vivo.
A further experiment deals with C57Bl/6 mice. The experiment is described as follows: Ischemia reperfusion (myocardial infarct), infarcted area by histology. The following applies: C57Bl/6 mice treated with fluoxetine for 6 weeks. It counts as in vivo.

Structures can show the parent of a compound that is named as a salt.

Consider 2 compounds from patent US20180303772A1, “5-HYDROXYTRYPTAMINE 1B RECEPTOR-STIMULATING AGENT FOR THE TREATMENT OF MYOCARDIAL INFARCTION” (INSTITUT PASTEUR, priority 2015, published 2018).

5-HT1BR, sequence (P28334 whole entry): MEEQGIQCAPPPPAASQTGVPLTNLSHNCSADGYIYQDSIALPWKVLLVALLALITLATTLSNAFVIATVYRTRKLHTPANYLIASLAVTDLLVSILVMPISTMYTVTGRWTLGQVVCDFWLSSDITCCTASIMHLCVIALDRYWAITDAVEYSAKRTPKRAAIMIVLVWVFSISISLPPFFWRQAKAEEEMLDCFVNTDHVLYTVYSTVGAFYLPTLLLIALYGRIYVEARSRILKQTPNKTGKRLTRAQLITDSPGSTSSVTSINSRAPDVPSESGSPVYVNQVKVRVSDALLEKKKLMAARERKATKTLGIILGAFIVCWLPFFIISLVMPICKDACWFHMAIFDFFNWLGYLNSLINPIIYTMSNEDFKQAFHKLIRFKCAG
Experimental for 5-HT1BR: Counting was done based on the endogenous fluorescence. […] (d) Number of vessels (counted with endogenous GFP from Flk1^GFP/+ mouse) in fluoxetine, fluoxetine and 5HT1B inhibitor, inhibitor alone per mm^2 in the heart.
Statistical analysis was performed using GraphPad Prism software using appropriate tests (non-parametric Mann-Whitney unless specified) and a minimum of 95% confidence interval for significance; p values indicated on figures are <0.05 (*), <0.01 (**), and <0.001 (***). Figures display average values of all animals tested ±SD
Experimental for C57Bl/6 mice: (e-f) Haematoxylin and eosin staining of heart of the placebo and the fluoxetine treated mice. (g) Quantification of the infarcted area with or without fluoxetine treatment.
Animals were anesthetized with ketamine (Imalgene1000 100 mg/Kg Merial) and Xylazine (Rompun2% 20 mg/Kg Bayer) prior to injury. Animals were hydrated and treated with analgesic (Buprenorphin Axience 0.3 mg/kg) twice a day for 4 days following injury.
(§1) Hearts were carefully dissected and snap frozen in liquid-nitrogen-cooled OCT for a few minutes and stored at −80° C. prior to cryosectioning (10 μm sections). Sections were kept at room temperature overnight before staining. Sections were then rehydrated in PBS for 10 minutes and fixed in 10% formalin for 3 minutes. The sections were then routinely stained with haematoxylin and eosin (HE) using an automated stain machine or manually with red sirius.
For image analysis (fibrosis quantification) ImageJ 1.46r software was using between different photos randomly taken per section and 3 sections minimum per experimental group. The pictures were converted in a binary image and the pixel values then collected.
Statistical analysis was performed using GraphPad Prism software using appropriate tests (non-parametric Mann-Whitney unless specified) and a minimum of 95% confidence interval for significance; p values indicated on figures are <0.05 (*), <0.01 (**), and <0.001 (***). […]
Text for Flk1^GFP/+ mice: Counting was done based on the endogenous fluorescence. (b-c) Cryo-sections of the heart of Flk1^GFP/+ mice treated with placebo (b) or fluoxetine (c). Endogenous GFP levels are shown. (d) Number of vessels (counted with endogenous GFP from Flk1^GFP/+ mouse) in fluoxetine, fluoxetine and 5HT1B inhibitor, inhibitor alone per mm^2 in the heart. (e-f) Haematoxylin and eosin staining of heart of the placebo and the fluoxetine treated mice. (g) Quantification of the infarcted area with or without fluoxetine treatment.
as §1
Statistical analysis was performed using GraphPad Prism software using appropriate tests (non-parametric Mann-Whitney unless specified) and a minimum of 95% confidence interval for significance; p values indicated on figures are <0.05 (*), <0.01 (**), and <0.001 (***). Figures display average values of all animals tested ±SD […]

For the compound `COc1ccc(NC(=O)c2ccc(-c3ccc(-c4noc(C)n4)cc3C)cc2)cc1N1CCN(C)CC1` [GR127935 hydrochloride], on 5-HT1BR (GR127935 hydrochloride in osmotic pump together with fluoxetine treatment), the “effect of 5-HT1BR inhibition on the fluoxetine-induced increase in vessel number in the heart” value is “no increase in the vessel number in the heart was observed”.

As to `CNCCC(Oc1ccc(C(F)(F)F)cc1)c1ccccc1` (stereo not drawn) [fluoxetine], the “vessel number in the heart” value at 5-HT1BR (fluoxetine and PBS treated mice) stood at 1697±702 vessels per mm^2; in the experiment with Flk1^GFP/+ mice (6 weeks IP, placebo 932.9±186, p=0.017) it was 1634±608 vessels; with Flk1^GFP/+ mice (6 weeks PO, placebo 932.9±186, p=0.03), 1474±375 vessels. Further, the “infarcted area at the histological level” value in the experiment on C57Bl/6 mice (3 days after infarct, placebo 53126±11849, p=0.02) stood at 36690±7884 pixels. For the same compound, in the experiment on C57Bl/6 mice (control 5%), the “infarcted area, first observation after ischemia reperfusion” value is given as 25 % of total area.
